Measured values from patent US5498632A, “Esters of acyl carnitines with long-chain aliphatic alcohols and pharmaceutical compositions containing same having antibacterial activity” (Sigma-Tau Industrie Farmaceutiche Riunite S.p.A., priority 1992, dated 1996).

Tests used:
Type in all cases: cell-based
[1] = tested on: Bacillus pumilus (CN 607); assay: MIC in broth, Gram+ strains; conditions: B. pumilus (CN 607), Mueller-Hinton broth, 37° C., 18 hours, read-out: Minimal Inhibitory Concentration (MIC)
Description: (§1) Evaluation of the Minimal Inhibitory Concentration (MIC) in broth of 15 new substances for Gram+ bacterial strains.
(§2) The following strains were used: Staphylococcus aureus (4); Streptococcus faecalis (8); Bacillus pumilus (1); Bacillus subtilis (1).
(§3) MICs were determined by a standard microdilution test, using serial two-fold dilutions of the substances in Mueller-Hinton broth.
(§4) The inoculum was prepared from an overnight culture in Mueller-Hinton broth matching the 0.5 Mc Farland (turbidity) standard (BRAY W. E., Clinical Laboratory Methods, 5th Ed. C. V. MOSBY, St. Louis, Mo. 1957), and was adjusted to a final concentration of 5.0×10^4 colony-forming units/ml.
(§5) Equal volumes (0.1 ml) of both bacterial suspensions and substance solutions were distributed in microtiter plates (Falcon, 96 wells, round bottom), and then placed in a humidified incubator (37° C.) for 18 hours.
(§6) The results, in terms of MIC values, resistant strain number and mean MIC values versus susceptible strains, are illustrated in Tables 1-6.

[2] = tested on: Bacillus subtilis (ATCC 6051); assay: MIC in broth, Gram+ strains; conditions: ATCC6051, B. subtilis (ATCC 6051), Mueller-Hinton broth, 37° C., 18 hours, read-out: Minimal Inhibitory Concentration (MIC)
Description: as §1, §2, §3, §4, §5, §6

[3] = tested on: Staphylococcus aureus (303); assay: MIC in broth, Gram+ strains; conditions: S. aureus (303), Mueller-Hinton broth, 37° C., 18 hours, read-out: Minimal Inhibitory Concentration (MIC)
Description: as §1, §2, §3, §4, §5, §6

[4] = tested on: Staphylococcus aureus (ATCC 14154); assay: MIC in broth, Gram+ strains; conditions: ATCC14154, S. aureus (ATCC 14154), Mueller-Hinton broth, 37° C., 18 hours, read-out: Minimal Inhibitory Concentration (MIC)
Description: as §1, §2, §3, §4, §5, §6

[5] = tested on: Staphylococcus aureus (LC1); assay: MIC in broth, Gram+ strains; conditions: S. aureus (LC1), Mueller-Hinton broth, 37° C., 18 hours, read-out: Minimal Inhibitory Concentration (MIC)
Description: as §1, §2, §3, §4, §5, §6

[6] = tested on: Streptococcus faecalis (501); assay: MIC in broth, Gram+ strains; conditions: Enterococcus faecalis; S. faecalis (501), Mueller-Hinton broth, 37° C., 18 hours; read-out: Minimal Inhibitory Concentration (MIC)
Description: as §1, §2, §3, §4, §5, §6

[7] = tested on: Streptococcus faecalis (505); assay: MIC in broth, Gram+ strains; conditions: Enterococcus faecalis; S. faecalis (505), Mueller-Hinton broth, 37° C., 18 hours; read-out: Minimal Inhibitory Concentration (MIC)
Description: as §1, §2, §3, §4, §5, §6

[8] = tested on: Streptococcus faecalis (509); assay: MIC in broth, Gram+ strains; conditions: Enterococcus faecalis; S. faecalis (509), Mueller-Hinton broth, 37° C., 18 hours; read-out: Minimal Inhibitory Concentration (MIC)
Description: as §1, §2, §3, §4, §5, §6

[9] = tested on: Streptococcus faecalis (516); assay: MIC in broth, Gram+ strains; conditions: Enterococcus faecalis; S. faecalis (516), Mueller-Hinton broth, 37° C., 18 hours; read-out: Minimal Inhibitory Concentration (MIC)
Description: as §1, §2, §3, §4, §5, §6

[10] = tested on: Streptococcus faecalis (518); assay: MIC in broth, Gram+ strains; conditions: Enterococcus faecalis; S. faecalis (518), Mueller-Hinton broth, 37° C., 18 hours; read-out: Minimal Inhibitory Concentration (MIC)
Description: as §1, §2, §3, §4, §5, §6

[11] = tested on: Streptococcus faecalis (519); assay: MIC in broth, Gram+ strains; conditions: Enterococcus faecalis; S. faecalis (519), Mueller-Hinton broth, 37° C., 18 hours; read-out: Minimal Inhibitory Concentration (MIC)
Description: as §1, §2, §3, §4, §5, §6

[12] = tested on: Streptococcus faecalis (R 2); assay: MIC in broth, Gram+ strains; conditions: Enterococcus faecalis; S. faecalis (R 2), Mueller-Hinton broth, 37° C., 18 hours; read-out: Minimal Inhibitory Concentration (MIC)
Description: as §1, §2, §3, §4, §5, §6

[13] = tested on: Streptococcus faecalis (UM); assay: MIC in broth, Gram+ strains; conditions: Enterococcus faecalis; S. faecalis (UM), Mueller-Hinton broth, 37° C., 18 hours; read-out: Minimal Inhibitory Concentration (MIC)
Description: as §1, §2, §3, §4, §5, §6

Gram+ bacterial strains = assay: Mean MIC in broth and resistant strain number, Gram+ strains; conditions: 18 h, versus susceptible strains
Description: as §1, §2, §3, §4, §5, §6

[14] = tested on: Enterobacter aerogenes (UM); assay: MIC in broth, Gram- strains; conditions: Klebsiella aerogenes, 18 h, read-out: Minimal Inhibitory Concentration (MIC)
Description: as §3, §4, §5
(§7) Evaluation of the Minimal Inhibitory Concentration (MIC) in broth of 16 new substances for Gram- bacterial strains.
(§8) The following strains were used: Enterobacter (1), Escherichia (3), Klebsiella (3), Proteus (3); Pseudomonas (2); Salmonella (2), Serratia (1).

Escherichia coli (92 F) = assay: MIC in broth, Gram- strains; conditions: 18 h, E. coli (92 F), read-out: Minimal Inhibitory Concentration (MIC)
Description: as §3, §4, §5, §7, §8

Escherichia coli (R 57B) = assay: MIC in broth, Gram- strains; conditions: 18 h, E. coli (R 57B), read-out: Minimal Inhibitory Concentration (MIC)
Description: as §3, §4, §5, §7, §8

[15] = tested on: Klebsiella aerogenes (SH 1082); assay: MIC in broth, Gram- strains; conditions: 18 h, read-out: Minimal Inhibitory Concentration (MIC)
Description: as §3, §4, §5, §7, §8

Klebsiella oxytoca (552) = assay: MIC in broth, Gram- strains; conditions: 18 h, read-out: Minimal Inhibitory Concentration (MIC)
Description: as §3, §4, §5, §7, §8

[16] = tested on: Klebsiella pneumoniae (7823); assay: MIC in broth, Gram- strains; conditions: 18 h, read-out: Minimal Inhibitory Concentration (MIC)
Description: as §3, §4, §5, §7, §8

Proteus mirabilis (32) = assay: MIC in broth, Gram- strains; conditions: 18 h, read-out: Minimal Inhibitory Concentration (MIC)
Description: as §3, §4, §5, §7, §8

Proteus morganii (D.S.) = assay: MIC in broth, Gram- strains; conditions: Morganella morganii, 18 h, read-out: Minimal Inhibitory Concentration (MIC)
Description: as §3, §4, §5, §7, §8

Proteus vulgaris (UM) = assay: MIC in broth, Gram- strains; conditions: 18 h, read-out: Minimal Inhibitory Concentration (MIC)
Description: as §3, §4, §5, §7, §8

[17] = tested on: Pseudomonas aeruginosa (10 E); assay: MIC in broth, Gram- strains; conditions: 18 h, read-out: Minimal Inhibitory Concentration (MIC)
Description: as §3, §4, §5, §7, §8

[18] = tested on: Pseudomonas aeruginosa (3 E); assay: MIC in broth, Gram- strains; conditions: 18 h, read-out: Minimal Inhibitory Concentration (MIC)
Description: as §3, §4, §5, §7, §8

Salmonella typhi (J) = assay: MIC in broth, Gram- strains; conditions: Salmonella enterica, 18 h, read-out: Minimal Inhibitory Concentration (MIC)
Description: as §3, §4, §5, §7, §8

[19] = tested on: Salmonella typhimurium (D.S.); assay: MIC in broth, Gram- strains; conditions: Salmonella enterica, 18 h, read-out: Minimal Inhibitory Concentration (MIC)
Description: as §3, §4, §5, §7, §8

Gram- bacterial strains = assay: Mean MIC in broth and resistant strain number, Gram- strains; conditions: 18 h, read-out: Mean MIC values
Description: as §3, §4, §5, §7, §8

[20] = tested on: Helicobacter pylori NCTC 11637; assay: In vitro synergistic effect of ST 722 and Bismuth Subcitrate
Description: CBS from the commercially available product De-Nol® (Gist-Brocades, Netherland), i.e. ammonium and potassium double salt of colloidal bismuth citrate hydroxide, was utilized by preparing a suspension of 10 mg/ml CBS in 1N NaOH. After diluting 1:10 in Mueller-Hinton broth, 8 serial two-fold dlitutions in the same medium were made. The compound ST 722 was dissolved in Mueller-Hinton broth at a starting concentration of 100 mcg/ml, then 7 serial two-fold dilutions were carried out.
The "in vitro" anti-Helicobacter activity of both CBS and ST 722, alone and in association, was tested by utilizing the strain H. pylori NCTC 11637.
A 24-hour culture of Helicobacter in Columbia agar medium supplemented with Vitox (Oxoid) and 7% defribinated horse blood is washed with Mueller-Hinton broth.
Following densitometric evaluation (reading at 600 nm), the bacterial suspension was adjusted to a concentration of 1.0×10^9 cells/ml and 0.2-ml volumes were distributed into each well of a 96-well U-bottomed microtiter plate.
A 1-μl volume of this bacterial suspension was then distributed, by means of a Steers-type replicator apparatus, into the wells of microtiter plates containing the substances, either alone or in association. The final bacterial inoculum contained approximately 1.0×10^6 bacterial cells.
The procedure described by Garrod et al. (GARROD, L. P. and WATERWORTH, P. M., 1962. Methods of testing combined antibiotic bactericidal action and the significance of the results. J. Clin. Pathol. 15, 328-338) was utilized.
Briefly, 250-μl volumes of each test substance, either alone or admixed in all the possible combinations, were additioned to 4.5 ml of Mueller-Hinton agar containing 5% defribinated horse serum. Volumes of 0.2 ml/well of the resulting solution were distributed into the wells of a microtiter plate, then seeded with 1 μl/well of a standardized bacterial suspension, and finally incubated for 48 hours at 37° C. in a 10% CO2 atmosphere.
In order to evaluate the results obtained with combinations of antibiotics it was utilized the method (KROGSTAD, D. J. and MOELLERING, R. C., 1983. Antimicrobial combinations. In LORIAN, V., Antibiotics in Laboratory Medicine, 15, 537-549) based on the calculation of the Fractional Inhibitory Concentration Index (FIC index).
FIC index is calculated as follows: [formula] Where (A) is the MIC of substance A in the association and (MICA) is the […] of the organism to substance A alone. FICA is the fractional inhibitory concentration of substance A. (B), (MICB) and FICB are defined in the same fashion for substance B.
Based on these criteria, the effect of a combination of 2 substances is referred to as 'synergistic" when the FIC index is ≤0.5, "additive" with a FIC index=1, and "antagonist" when FIC index is >1.

Compound: CCCCCCCCCCCCOC(=O)CC(C[N+](C)(C)C)OC(=O)C(C)C (stereo not drawn) [ST 1038]
- MIC [1]: 3.12 µg/mL
- MIC [2]: 6.25 µg/mL
- MIC [3]: 6.25 µg/mL
- MIC [4]: 3.12 µg/mL
- MIC [5]: 1.56 µg/mL
- MIC [6]: 3.12 µg/mL
- MIC [7]: 3.12 µg/mL
- MIC [8]: 3.12 µg/mL
- MIC [9]: 3.12 µg/mL
- MIC [10]: 3.12 µg/mL
- MIC [11]: 3.12 µg/mL
- MIC [12]: 3.12 µg/mL
- MIC [13]: 3.12 µg/mL
- MIC (Gram+ bacterial strains): 3.48 µg/mL
- MIC [14]: 25 µg/mL
- MIC (Escherichia coli (92 F)): 25 µg/mL
- MIC (Escherichia coli (R 57B)): 100 µg/mL
- MIC [15]: 50 µg/mL
- MIC (Klebsiella oxytoca (552)): 25 µg/mL
- MIC [16]: 25 µg/mL
- MIC (Proteus mirabilis (32)): > 100 µg/mL
- MIC (Proteus morganii (D.S.)): 100 µg/mL
- MIC (Proteus vulgaris (UM)): 100 µg/mL
- MIC [17]: 100 µg/mL
- MIC [18]: 100 µg/mL
- MIC (Salmonella typhi (J)): 25 µg/mL
- MIC [19]: 25 µg/mL
- MIC (Gram- bacterial strains): 41.7 µg/mL

Compound: Colloidal Bismuth Subcitrate [CBS, reference compound]
- FIC (fractional inhibitory concentration) ([20]; ST 722 with CBS): 0.50
- MIC ([20]; substance alone, H. pylori NCTC 11637, 48 hours): 6.25 µg/mL
